Numbered stars: 1 amine (or outer) side, 2 acyl side, 3 side chain; on linkers, the order of the positions; unused ones are H or OH. Bridge positions count the residues as written; N and C are the ends. Square brackets hold non-standard residues; d marks the D form. Side chains are listed from the residue outwards. Peptide text beside a SMILES is read from it. * marks the point of attachment. DOTA(Lu) = O=C1CN2CCN3CCN(CC(=O)*)CCN(CC2)CC(=O)[O][Lu]([O]1)[O]C(=O)C3; NH(1-deoxy-D-glucityl) = OC[C@@H](O)[C@@H](O)[C@H](O)[C@@H](O)CN*; DOTA = O=C(O)CN1CCN(CC(=O)O)CCN(CC(=O)*)CCN(CC(=O)O)CC1; Trp(1-Me,7-Cl) = Cn1cc(C[C@H](N)C(=O)O)c2cccc(Cl)c21; dPhe(3-CONH2) = NC(=O)c1cccc(C[C@@H](N)C(=O)O)c1; NMePhe(3-CN) = CN[C@@H](Cc1cccc(C#N)c1)C(=O)O; Piperazinyl(4-CH2COOH) = O=C(O)CN1CCN(*)CC1; Trp(1-Me) = Cn1cc(C[C@H](N)C(=O)O)c2ccccc21; NMemTyr = CN[C@@H](Cc1cccc(O)c1)C(=O)O; NMe3Pal = CN[C@@H](Cc1cccnc1)C(=O)O; NMeF = CN[C@@H](Cc1ccccc1)C(=O)O; hCit = NC(=O)NCCCC[C@H](N)C(=O)O; Gly(cBu) = N[C@H](C(=O)O)C1CCC1; NMeE = CN[C@@H](CCC(=O)O)C(=O)O; Aad = N[C@@H](CCCC(=O)O)C(=O)O; Cit = NC(=O)NCCC[C@H](N)C(=O)O; NMeN = CN[C@@H](CC(N)=O)C(=O)O; CO = O=C([*:1])[*:2]

For one test, the target named is T1, Recombinant Human EphA2 Fc Protein (Homo sapiens, UniProt P29317).
T1 construct: purchased Elabscience
T1 sequence (P29317 24-534 limits assumed): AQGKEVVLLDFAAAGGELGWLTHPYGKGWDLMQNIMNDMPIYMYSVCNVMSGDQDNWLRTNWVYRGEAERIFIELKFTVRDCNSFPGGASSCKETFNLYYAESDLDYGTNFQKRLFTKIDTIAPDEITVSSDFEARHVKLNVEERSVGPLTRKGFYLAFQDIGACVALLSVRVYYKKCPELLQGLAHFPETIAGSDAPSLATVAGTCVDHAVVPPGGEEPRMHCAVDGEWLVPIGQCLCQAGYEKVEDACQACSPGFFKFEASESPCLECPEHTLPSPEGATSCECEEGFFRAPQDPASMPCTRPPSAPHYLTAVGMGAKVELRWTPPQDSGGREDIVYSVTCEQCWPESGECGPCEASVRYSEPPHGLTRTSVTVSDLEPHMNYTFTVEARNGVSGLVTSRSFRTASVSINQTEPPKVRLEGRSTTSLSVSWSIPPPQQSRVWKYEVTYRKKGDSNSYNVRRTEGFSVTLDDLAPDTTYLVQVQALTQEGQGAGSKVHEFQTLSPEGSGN
The test can be described thus: Interaction analysis (kinetics, KD) of peptides and conjugates against EphA2 by SPR, Biacore T200, single-cycle kinetics (Examples B15 and B22). The test is classed as binding.
Details: not given
As to the method:
Example B15. Interaction Analysis by SPR was Performed Using Biacore (Cytiva)
SPR assay was performed using Biacore T200 (Cytiva).
The HBS-P+ buffer (10 mM HEPES (pH7.4), 150 mM NaCl, 0.05% (v/v) Surfactant P20) containing 1% DMSO was used as running buffer. Recombinant Human EphA2 Fc Protein (Fc tag, Elabscience) was captured by Human Antibody Capture kit (Cytiva). Peptide samples in DMSO were diluted with running buffer, and prepared five serial dilutions. Using these serial dilutions, kinetics of peptides against EphA2 was measured at a flow rate of […] at 25 °C. The method adopted for sample measurement was a single-cycle kinetics method. The analysis was conducted using the evaluation software 3.0 provided with Biacore T200. Kinetics fitting was done on the difference data obtained by subtracting the baseline data from sample measurement data. KD values were calculated based on the association rate constant (ka) and dissociation rate constant (kd).
Example B22: Interaction Analysis of Conjugates by SPR was Performed Using Biacore (Cytiva)
SPR assay was performed using Biacore T200 (Cytiva) according to Example B15.
Background: SPR reads the build-up and loss of mass on a sensor chip optically.
On to `C[C@@H](O)[C@@H]1NC(=O)[C@H](Cc2cn(C)c3ccccc23)NC(=O)[C@H](CCC(=O)NC[C@H](O)[C@@H](O)[C@H](O)[C@H](O)CO)NC(=O)[C@H](Cc2cn(C)c3ccccc23)NC(=O)[C@H](CC(N)=O)N(C)C(=O)[C@H](CCCC(N)=O)NC(=O)[C@H](C2CCC2)NC(=O)[C@H](CC(N)=O)NC(=O)[C@H](Cc2cccnc2)N(C)C(=O)[C@@H](Cc2cccc(C(N)=O)c2)NC(=O)CSC[C@@H](C(=O)N[C@H](CCCCNC(=O)CN2CCN3CCN4CCN(CC2)CC(=O)[O][Lu]([O]C(=O)C3)[O]C(=O)C4)C(N)=O)NC(=O)[C@H](CCCC(N)=O)NC1=O` [PDC_EphA2-00022595-C302] ({CH2CO}-[dPhe(3-CONH2)][NMe3Pal]N[Gly(cBu)][Aad](NH2)[NMeN][Trp(1-Me)]E(NH(1-deoxy-D-glucityl))[Trp(1-Me)]T[Aad](NH2)C[dK](DOTA(Lu))-NH2; thioether N-12), for which the Kd (commonly the constant that tells how readily two partners part at equilibrium) was below 1 nM.

As for `C[C@@H](O)[C@@H]1NC(=O)[C@H](Cc2cn(C)c3ccccc23)NC(=O)[C@H](CCCCNC(=O)N2CCN(CC(=O)O)CC2)NC(=O)[C@H](Cc2cn(C)c3c(Cl)cccc23)NC(=O)[C@H](CCC(=O)O)N(C)C(=O)[C@H](CCCC(N)=O)NC(=O)[C@H](C2CCC2)NC(=O)[C@H](CC(N)=O)NC(=O)[C@H](Cc2cccc(C#N)c2)N(C)C(=O)[C@@H](Cc2cccc(C(N)=O)c2)NC(=O)CSC[C@@H](C(=O)N[C@H](CCCCNC(=O)CN2CCN3CCN4CCN(CC2)CC(=O)[O][Lu]([O]C(=O)C3)[O]C(=O)C4)C(N)=O)NC(=O)[C@H](CCCC(N)=O)NC1=O` [PDC_EphA2-00022612-C302] ({CH2CO}-[dPhe(3-CONH2)][NMePhe(3-CN)]N[Gly(cBu)][Aad](NH2)[NMeE][Trp(1-Me,7-Cl)]K([CO-Piperazinyl(4-CH2COOH)])[Trp(1-Me)]T[Aad](NH2)C[dK](DOTA(Lu))-NH2; thioether N-12), the Kd is below 1 nM.

In the case of `C[C@@H](O)[C@@H]1NC(=O)[C@H](Cc2cn(C)c3ccccc23)NC(=O)[C@H](CCCCNC(=O)N2CCN(CC(=O)O)CC2)NC(=O)[C@H](Cc2cn(C)c3c(Cl)cccc23)NC(=O)[C@H](CCC(=O)O)N(C)C(=O)[C@H](CCCC(N)=O)NC(=O)[C@H](C2CCC2)NC(=O)[C@H](CC(N)=O)NC(=O)[C@H](Cc2cccc(O)c2)N(C)C(=O)[C@@H](Cc2cccc(C(N)=O)c2)NC(=O)CSC[C@@H](C(=O)N[C@H](CCCCNC(=O)CN2CCN3CCN4CCN(CC2)CC(=O)[O][Lu]([O]C(=O)C3)[O]C(=O)C4)C(N)=O)NC(=O)[C@H](CCCC(N)=O)NC1=O` [PDC_EphA2-00022613-C302] ({CH2CO}-[dPhe(3-CONH2)][NMemTyr]N[Gly(cBu)][Aad](NH2)[NMeE][Trp(1-Me,7-Cl)]K([CO-Piperazinyl(4-CH2COOH)])[Trp(1-Me)]T[Aad](NH2)C[dK](DOTA(Lu))-NH2; thioether N-12), the Kd was below 1 nM.

Regarding `C[C@@H](O)[C@@H]1NC(=O)[C@H](Cc2cn(C)c3ccccc23)NC(=O)[C@H](CCC(=O)NC[C@H](O)[C@@H](O)[C@H](O)[C@H](O)CO)NC(=O)[C@H](Cc2cn(C)c3c(Cl)cccc23)NC(=O)[C@H](CC(N)=O)N(C)C(=O)[C@H](CCCC(N)=O)NC(=O)[C@H](C2CCC2)NC(=O)[C@H](CC(N)=O)NC(=O)[C@H](Cc2cccc(C#N)c2)N(C)C(=O)[C@@H](Cc2cccc(C(N)=O)c2)NC(=O)CSC[C@@H](C(=O)N[C@H](CCCCNC(=O)CN2CCN3CCN4CCN(CC2)CC(=O)[O][Lu]([O]C(=O)C3)[O]C(=O)C4)C(N)=O)NC(=O)[C@H](CCCC(N)=O)NC1=O` [PDC_EphA2-00022615-C302] ({CH2CO}-[dPhe(3-CONH2)][NMePhe(3-CN)]N[Gly(cBu)][Aad](NH2)[NMeN][Trp(1-Me,7-Cl)]E(NH(1-deoxy-D-glucityl))[Trp(1-Me)]T[Aad](NH2)C[dK](DOTA(Lu))-NH2; thioether N-12), the Kd is below 1 nM.

Turning to `CC(C)C[C@@H]1NC(=O)[C@H](CC(N)=O)NC(=O)[C@H](Cc2cccnc2)N(C)C(=O)[C@@H](Cc2cccc(C(N)=O)c2)NC(=O)CSC[C@@H](C(=O)N[C@H](CCCCNC(=O)CN2CCN3CCN4CCN(CC2)CC(=O)[O][Lu]([O]C(=O)C3)[O]C(=O)C4)C(N)=O)NC(=O)[C@H](CC(N)=O)NC(=O)[C@H]([C@@H](C)O)NC(=O)[C@H](Cc2cn(C)c3ccccc23)NC(=O)[C@H](CCCNC(N)=O)NC(=O)[C@H](Cc2cn(C)c3c(Cl)cccc23)NC(=O)[C@H](CC(N)=O)N(C)C(=O)[C@H](CC(N)=O)NC1=O` [PDC_EphA2-00026426-C302] ({CH2CO}-[dPhe(3-CONH2)][NMe3Pal]NLN[NMeN][Trp(1-Me,7-Cl)][Cit][Trp(1-Me)]TNC[dK](DOTA(Lu))-NH2; thioether N-12), the Kd was below 1 nM.

`CC(C)C[C@@H]1NC(=O)[C@H](CC(N)=O)NC(=O)[C@H](Cc2cccnc2)N(C)C(=O)[C@@H](Cc2cccc(C(N)=O)c2)NC(=O)CSC[C@@H](C(=O)N[C@@H](CCCCNC(=O)CN2CCN3CCN4CCN(CC2)CC(=O)[O][Lu]([O]C(=O)C3)[O]C(=O)C4)C(N)=O)NC(=O)[C@H](Cc2cn(C)c3ccccc23)NC(=O)[C@H](CCCCNC(N)=O)NC(=O)[C@H](Cc2cn(C)c3c(Cl)cccc23)NC(=O)[C@H](Cc2ccccc2)N(C)C(=O)[C@H](CO)NC1=O` [PDC_EphA2-00026600-C301] ({CH2CO}-[dPhe(3-CONH2)][NMe3Pal]NLS[NMeF][Trp(1-Me,7-Cl)][hCit][Trp(1-Me)]CK(DOTA(Lu))-NH2; thioether N-10): the dissociation constant (Kd) is below 1 nM.

The same test, now with this note: conjugates, Biacore T200 according to Example B15, Table B16; read-out: SPR Kd.
In the case of `C[C@@H](O)[C@@H]1NC(=O)[C@H](Cc2cn(C)c3ccccc23)NC(=O)[C@H](CCC(=O)NC[C@H](O)[C@@H](O)[C@H](O)[C@H](O)CO)NC(=O)[C@H](Cc2cn(C)c3c(Cl)cccc23)NC(=O)[C@H](Cc2cccnc2)N(C)C(=O)[C@H](CCCC(N)=O)NC(=O)[C@H](C2CCC2)NC(=O)[C@H](CC(N)=O)NC(=O)[C@H](Cc2cccc(C#N)c2)N(C)C(=O)[C@@H](Cc2cccc(C(N)=O)c2)NC(=O)CSC[C@@H](C(=O)N[C@H](CCCCNC(=O)CN2CCN(CC(=O)O)CCN(CC(=O)O)CCN(CC(=O)O)CC2)C(N)=O)NC(=O)[C@H](CCCC(N)=O)NC1=O.[Lu+3]` [PDC_EphA2-00022614-C302] ({CH2CO}-[dPhe(3-CONH2)][NMePhe(3-CN)]N[Gly(cBu)][Aad](NH2)[NMe3Pal][Trp(1-Me,7-Cl)]E(NH(1-deoxy-D-glucityl))[Trp(1-Me)]T[Aad](NH2)C[dK](DOTA)-NH2; thioether N-12), the Kd is below 1 nM.

With `CC(C)C[C@@H]1NC(=O)[C@H](CC(N)=O)NC(=O)[C@H](Cc2cccnc2)N(C)C(=O)[C@@H](Cc2cccc(C(N)=O)c2)NC(=O)CSC[C@@H](C(=O)N[C@H](CCCCNC(=O)CN2CCN(CC(=O)O)CCN(CC(=O)O)CCN(CC(=O)O)CC2)C(N)=O)NC(=O)[C@H](CC(N)=O)NC(=O)[C@H]([C@@H](C)O)NC(=O)[C@H](Cc2cn(C)c3ccccc23)NC(=O)[C@H](CCC(=O)NC[C@H](O)[C@@H](O)[C@H](O)[C@H](O)CO)NC(=O)[C@H](Cc2cn(C)c3c(Cl)cccc23)NC(=O)[C@H](Cc2cccnc2)N(C)C(=O)[C@H](CC(N)=O)NC1=O.[Lu+3]` [PDC_EphA2-00026424-C302] ({CH2CO}-[dPhe(3-CONH2)][NMe3Pal]NLN[NMe3Pal][Trp(1-Me,7-Cl)]E(NH(1-deoxy-D-glucityl))[Trp(1-Me)]TNC[dK](DOTA)-NH2; thioether N-12), the dissociation constant (Kd) was below 1 nM.

As for `CC(C)C[C@@H]1NC(=O)[C@H](CC(N)=O)NC(=O)[C@H](Cc2cccnc2)N(C)C(=O)[C@@H](Cc2cccc(C(N)=O)c2)NC(=O)CSC[C@@H](C(=O)N[C@H](CCCCNC(=O)CN2CCN(CC(=O)O)CCN(CC(=O)O)CCN(CC(=O)O)CC2)C(N)=O)NC(=O)[C@H](CC(N)=O)NC(=O)[C@H]([C@@H](C)O)NC(=O)[C@H](Cc2cn(C)c3ccccc23)NC(=O)[C@H](CCC(=O)NC[C@H](O)[C@@H](O)[C@H](O)[C@H](O)CO)NC(=O)[C@H](Cc2cn(C)c3c(Cl)cccc23)NC(=O)[C@H](CC(N)=O)N(C)C(=O)[C@H](CC(N)=O)NC1=O.[Lu+3]` [PDC_EphA2-00026425-C302] ({CH2CO}-[dPhe(3-CONH2)][NMe3Pal]NLN[NMeN][Trp(1-Me,7-Cl)]E(NH(1-deoxy-D-glucityl))[Trp(1-Me)]TNC[dK](DOTA)-NH2; thioether N-12), the dissociation constant Kd was below 1 nM.

The test is the same for the next values; noted with them: peptides, Biacore T200, 25 °C, Table B12; read-out: SPR Kd.
`CC(C)C[C@@H]1NC(=O)[C@H](CC(N)=O)NC(=O)[C@H](Cc2cccnc2)N(C)C(=O)[C@@H](Cc2cccc(C(N)=O)c2)NC(=O)CSC[C@@H](C(N)=O)NC(=O)[C@H](CC(N)=O)NC(=O)[C@H]([C@@H](C)O)NC(=O)[C@H](Cc2cn(C)c3ccccc23)NC(=O)[C@H](CCC(=O)NC[C@H](O)[C@@H](O)[C@H](O)[C@H](O)CO)NC(=O)[C@H](Cc2cn(C)c3c(Cl)cccc23)NC(=O)[C@H](Cc2cccnc2)N(C)C(=O)[C@H](CC(N)=O)NC1=O` [PDC_EphA2-00026424] ({CH2CO}-[dPhe(3-CONH2)][NMe3Pal]NLN[NMe3Pal][Trp(1-Me,7-Cl)]E(NH(1-deoxy-D-glucityl))[Trp(1-Me)]TNC-NH2; thioether N-12): the Kd is below 1 nM.

`CC(C)C[C@@H]1NC(=O)[C@H](CC(N)=O)NC(=O)[C@H](Cc2cccnc2)N(C)C(=O)[C@@H](Cc2cccc(C(N)=O)c2)NC(=O)CSC[C@@H](C(N)=O)NC(=O)[C@H](CC(N)=O)NC(=O)[C@H]([C@@H](C)O)NC(=O)[C@H](Cc2cn(C)c3ccccc23)NC(=O)[C@H](CCCNC(N)=O)NC(=O)[C@H](Cc2cn(C)c3c(Cl)cccc23)NC(=O)[C@H](CC(N)=O)N(C)C(=O)[C@H](CC(N)=O)NC1=O` [PDC_EphA2-00026426] ({CH2CO}-[dPhe(3-CONH2)][NMe3Pal]NLN[NMeN][Trp(1-Me,7-Cl)][Cit][Trp(1-Me)]TNC-NH2; thioether N-12): the dissociation constant Kd is below 1 nM.
